According to EPA's ToxRefDB 2:

How the values were obtained:
rat [1] = conditions: Subchronic oral toxicity in rodents, Gavage/Intubation, dose end: 91 day
rat [2] = conditions: Prenatal developmental toxicity study, sprague dawley, Oral, Gavage/Intubation, dose end: 15 GD
dog [3] = conditions: Chronic toxicity, beagle, Oral, Feed, dose end: 12 month
rat [4] = conditions: Multigenerational reproductive toxicity study, sprague dawley, Oral, Feed, dose end: 3 generation
rat [5] = conditions: Multigenerational reproductive toxicity study, sprague dawley, Oral, Gavage/Intubation, dose end: 2 generation
rat [6] = conditions: Multigenerational reproductive toxicity study, sprague dawley, Oral, Gavage/Intubation, dose end: 2 generation; remark: listed apart in the source
rat [7] = conditions: Prenatal developmental toxicity study, fischer, Oral, Gavage/Intubation, dose end: 15 GD
mouse [8] = conditions: Prenatal developmental toxicity study, cd1, Oral, Gavage/Intubation, dose end: 15 GD
rat [9] = conditions: Multigenerational reproductive toxicity study, sprague dawley, Oral, Feed, dose end: 2 generation
rat [10] = conditions: Multigenerational reproductive toxicity study, sprague dawley, Oral, Feed, dose end: 2 generation; remark: listed apart in the source
dog [11] = conditions: Subchronic oral toxicity in nonrodent, beagle, Feed, dose end: 13 week
rat [12] = conditions: Subchronic oral toxicity in rodents, fischer, Feed, dose end: 13 week
rat [13] = conditions: Combined chronic toxicity/carcinogenicity, fischer, Oral, Feed, dose end: 24 month
mouse [14] = conditions: Carcinogenicity, cd1, Oral, Feed, dose end: 78 week
[15] = group: maternal, reproductive / reproductive performance / estrous cycle / abnormal + reproductive / reproductive performance / estrous cycle / absent …
[16] = group: systemic, systemic / clinical chemistry / albumin / albumin + systemic / clinical chemistry / cholesterol / cholesterol + systemic / clinical …
[17] = group: systemic, systemic / clinical chemistry / sodium / sodium + systemic / pathology microscopic / mammary gland / hyperplastic alveolar nodule + systemic…
[18] = group: developmental, systemic / in life observation / body weight / fetal weight
[19] = group: maternal, systemic / organ weight / placenta / absolute
[20] = group: cholinesterase, cholinesterase / cholinesterase / cholinesterase / plasma cholinesterase (che)
[21] = group: systemic, systemic / clinical chemistry / calcium / calcium + systemic / clinical chemistry / potassium / potassium + systemic / clinical chemistry / …
[22] = group: offspring, systemic / in life observation / body weight / offspring (pup) weight
[23] = group: offspring, systemic / in life observation / body weight / offspring (pup) weight + developmental / offspring survival late / viability index / …
[24] = group: parental, systemic / in life observation / body weight / body weight
[25] = group: parental, systemic / in life observation / body weight / body weight + systemic / in life observation / food consumption / food consumption
[26] = group: offspring, developmental / offspring survival late / viability index / viability index + systemic / in life observation / body weight / offspring (pup…
[27] = group: parental, systemic / in life observation / clinical signs / reduced activity
[28] = group: parental, systemic / in life observation / clinical signs / reduced activity + systemic / organ weight / adrenal gland / relative to body weight + …
[29] = group: reproductive, reproductive / offspring survival early / litter size / litter size + reproductive / offspring survival early / live fetuses / live fetuses
[30] = group: reproductive, reproductive / reproductive performance / gestational length / gestational length + reproductive / reproductive performance / pregnancy …
[31] = group: offspring, systemic / in life observation / body weight / offspring (pup) weight + systemic / in life observation / body weight / offspring (pup) …
[32] = group: parental, systemic / in life observation / body weight / body weight gain + systemic / in life observation / clinical signs / [other] + systemic / in …
[33] = group: parental, systemic / in life observation / clinical signs / reduced activity + systemic / in life observation / body weight / body weight gain + …
[34] = group: reproductive, reproductive / reproductive performance / estrous cycle / length + reproductive / reproductive performance / pregnancy index / pregnancy …
[35] = group: maternal, reproductive / reproductive performance / resorptions / resorptions + systemic / in life observation / body weight / body weight + systemic…
[36] = group: maternal, systemic / in life observation / clinical signs / hunched posture + systemic / in life observation / clinical signs / lacrimation + systemic…
[37] = group: developmental, developmental / developmental malformation / general / [other] + systemic / in life observation / body weight / fetal weight
[38] = group: cholinesterase, cholinesterase / cholinesterase / cholinesterase / erythrocyte cholinesterase (che)
[39] = group: offspring, systemic / organ weight / spleen / absolute + systemic / organ weight / spleen / relative to body weight
[40] = group: parental, systemic / pathology microscopic / adrenal gland / vacuolization cytoplasmic + systemic / organ weight / adrenal gland / absolute + systemic…
[41] = group: cholinesterase, cholinesterase / cholinesterase / cholinesterase / erythrocyte cholinesterase (che) + cholinesterase / cholinesterase / cholinesterase / …
[42] = group: offspring, developmental / offspring survival late / lactation index / lactation index + systemic / in life observation / body weight / offspring (pup…
[43] = group: parental, systemic / pathology microscopic / adrenal gland / [other] + systemic / pathology microscopic / adrenal gland / vacuolization + systemic / …
[44] = group: cholinesterase, cholinesterase / cholinesterase / cholinesterase / plasma cholinesterase (che) + cholinesterase / cholinesterase / cholinesterase / …
[45] = group: systemic, systemic / clinical chemistry / albumin / albumin + systemic / clinical chemistry / alkaline phosphatase (alp/alk) / alkaline phosphatase (…
[46] = group: systemic, systemic / hematology / platelet / platelet + systemic / organ weight / adrenal gland / absolute + systemic / organ weight / testes / …
[47] = group: systemic, systemic / pathology microscopic / adrenal gland / hypertrophy + systemic / pathology microscopic / adrenal gland / necrosis + systemic / …
[48] = group: systemic, systemic / pathology microscopic / pituitary gland / adenoma + systemic / pathology microscopic / uterus / polyp stromal + systemic / …
[49] = group: cholinesterase, cholinesterase / cholinesterase / cholinesterase / brain cholinesterase (che) + cholinesterase / cholinesterase / cholinesterase / …
[50] = group: systemic, systemic / urinalysis / protein / protein

CS(=O)(=O)O.Cc1cc(CCN2CCN(c3nsc4ccccc34)CC2)cc2c1NC(=O)CC2(C)C
LEL (rat [1]; [15]): 10 mg/kg/day
LOAEL (rat [1]; [15]): > 60 mg/kg/day
NEL (rat [1]; [15]): < 10 mg/kg/day
NOAEL (rat [1]; [15]): ≥ 60 mg/kg/day
LOAEL (rat [1]; [16]): > 60 mg/kg/day
NOAEL (rat [1]; [16]): ≥ 60 mg/kg/day
LEL (rat [1]; [17]): 10 mg/kg/day
NEL (rat [1]; [17]): < 10 mg/kg/day

O=C1CCCO1 [4-Butyrolactone]
LEL (rat [2]; [18]): 50 mg/kg/day
LOAEL (rat [2]; [18]): > 500 mg/kg/day
NEL (rat [2]; [18]): 10 mg/kg/day
NOAEL (rat [2]; [18]): ≥ 500 mg/kg/day
LEL (rat [2]; [19]): 10 mg/kg/day
LOAEL (rat [2]; [19]): > 500 mg/kg/day
NEL (rat [2]; [19]): < 10 mg/kg/day
NOAEL (rat [2]; [19]): ≥ 500 mg/kg/day

CNC(=O)Oc1cccc2c1OC(C)(C)C2 [Carbofuran]
LEL (dog [3]; [20]): 0.5 mg/kg/day
LOAEL (dog [3]; [20]): 0.5 mg/kg/day
NEL (dog [3]; [20]): 0.25 mg/kg/day
NOAEL (dog [3]; [20]): 0.25 mg/kg/day
LEL (dog [3]; [21]): 12.5 mg/kg/day
LOAEL (dog [3]; [21]): > 12.5 mg/kg/day
NEL (dog [3]; [21]): 0.5 mg/kg/day
NOAEL (dog [3]; [21]): ≥ 12.5 mg/kg/day
NEL (rat [4]; [22]): 1 mg/kg/day
NOAEL (rat [4]; [22]): 1 mg/kg/day
LEL (rat [4]; [23]): 5 mg/kg/day
LOAEL (rat [4]; [23]): 5 mg/kg/day
LEL (rat [4]; [24]): 1 mg/kg/day
NEL (rat [4]; [24]): < 1 mg/kg/day
LOAEL (rat [4]; [25]): 5 mg/kg/day
NOAEL (rat [4]; [25]): 1 mg/kg/day

CN(C)CCCN1c2ccccc2Sc2ccc(Cl)cc21.Cl [Chlorpromazine hydrochloride]
LOAEL (rat [5]; [26]): > 100 mg/kg/day
NOAEL (rat [5]; [26]): ≥ 100 mg/kg/day
LEL (rat [5]; [22]): 12.5 mg/kg/day
NEL (rat [5]; [22]): < 12.5 mg/kg/day
LEL (rat [5]; [27]): 12.5 mg/kg/day
NEL (rat [5]; [27]): < 12.5 mg/kg/day
LOAEL (rat [5]; [28]): > 100 mg/kg/day
NOAEL (rat [5]; [28]): ≥ 100 mg/kg/day
LEL (rat [5]; [29]): 12.5 mg/kg/day
NEL (rat [5]; [29]): < 12.5 mg/kg/day
LOAEL (rat [5]; [30]): > 100 mg/kg/day
NOAEL (rat [5]; [30]): ≥ 100 mg/kg/day
LOAEL (rat [6]; [26]): > 100 mg/kg/day
NOAEL (rat [6]; [26]): ≥ 100 mg/kg/day
LEL (rat [6]; [31]): 12.5 mg/kg/day
NEL (rat [6]; [31]): < 12.5 mg/kg/day
LOAEL (rat [6]; [32]): > 100 mg/kg/day
NOAEL (rat [6]; [32]): ≥ 100 mg/kg/day
LEL (rat [6]; [33]): 12.5 mg/kg/day
NEL (rat [6]; [33]): < 12.5 mg/kg/day
LEL (rat [6]; group: reproductive, reproductive / reproductive performance / estrous cycle / length): 25 mg/kg/day
LOAEL (rat [6]; [34]): > 100 mg/kg/day
NEL (rat [6]; [34]): 12.5 mg/kg/day
NOAEL (rat [6]; [34]): ≥ 100 mg/kg/day
LEL (rat [7]; [18]): 5 mg/kg/day
LOAEL (rat [7]; [18]): > 45 mg/kg/day
NEL (rat [7]; [18]): < 5 mg/kg/day
NOAEL (rat [7]; [18]): ≥ 45 mg/kg/day
LOAEL (rat [7]; [35]): > 45 mg/kg/day
NOAEL (rat [7]; [35]): ≥ 45 mg/kg/day
LEL (rat [7]; [36]): 5 mg/kg/day
NEL (rat [7]; [36]): < 5 mg/kg/day
LOAEL (mouse [8]; [37]): > 30 mg/kg/day
NEL (mouse [8]; [37]): 5 mg/kg/day
NOAEL (mouse [8]; [37]): ≥ 30 mg/kg/day
LEL (mouse [8]; [18]): 15 mg/kg/day
LOAEL (mouse [8]; [35]): > 30 mg/kg/day
NEL (mouse [8]; [35]): 5 mg/kg/day
NOAEL (mouse [8]; [35]): ≥ 30 mg/kg/day
LEL (mouse [8]; group: maternal, systemic / in life observation / body weight / body weight + systemic / in life observation / body weight / body weight gain): 15 mg/kg/day

COP(=S)(OC)Oc1nc(Cl)c(Cl)cc1Cl [Chlorpyrifos-methyl]
LEL (rat [9]; [38]): 1 mg/kg/day
LOAEL (rat [9]; [38]): 1 mg/kg/day
NEL (rat [9]; [38]): < 1 mg/kg/day
NOAEL (rat [9]; [38]): < 1 mg/kg/day
LEL (rat [9]; [39]): 10 mg/kg/day
LOAEL (rat [9]; [39]): > 10 mg/kg/day
NEL (rat [9]; [39]): 3 mg/kg/day
NOAEL (rat [9]; [39]): ≥ 10 mg/kg/day
LOAEL (rat [9]; group: parental, systemic / pathology microscopic / adrenal gland / vacuolization cytoplasmic): 3 mg/kg/day
LEL (rat [9]; [40]): 3 mg/kg/day
NEL (rat [9]; [40]): 1 mg/kg/day
NOAEL (rat [9]; [40]): 1 mg/kg/day
LEL (rat [10]; [41]): 1 mg/kg/day
LOAEL (rat [10]; [41]): 1 mg/kg/day
NEL (rat [10]; [41]): 0.1 mg/kg/day
NOAEL (rat [10]; [41]): 0.1 mg/kg/day
LEL (rat [10]; [42]): 5 mg/kg/day
LOAEL (rat [10]; [42]): 5 mg/kg/day
NEL (rat [10]; [42]): 1 mg/kg/day
NOAEL (rat [10]; [42]): 1 mg/kg/day
NEL (rat [10]; group: parental, systemic / pathology microscopic / adrenal gland / [other] + systemic / pathology microscopic / adrenal gland / vacuolization): 1 mg/kg/day
LEL (rat [10]; [43]): 5 mg/kg/day
LOAEL (rat [10]; [43]): > 5 mg/kg/day
NOAEL (rat [10]; [43]): ≥ 5 mg/kg/day
LEL (dog [11]; [20]): 0.1 mg/kg/day
NEL (dog [11]; [20]): < 0.1 mg/kg/day
LOAEL (dog [11]; [44]): 10 mg/kg/day
NOAEL (dog [11]; [44]): 0.1 mg/kg/day
LEL (dog [11]; [45]): 50 mg/kg/day
LOAEL (dog [11]; [45]): 50 mg/kg/day
NEL (dog [11]; [45]): 10 mg/kg/day
NOAEL (dog [11]; [45]): 10 mg/kg/day
LEL (rat [12]; [20]): 0.1 mg/kg/day
LOAEL (rat [12]; [20]): 0.1 mg/kg/day
NEL (rat [12]; [20]): < 0.1 mg/kg/day
NOAEL (rat [12]; [20]): < 0.1 mg/kg/day
LEL (rat [12]; [46]): 0.1 mg/kg/day
NEL (rat [12]; [46]): < 0.1 mg/kg/day
LOAEL (rat [12]; [47]): 10 mg/kg/day
NOAEL (rat [12]; [47]): 1 mg/kg/day
LEL (rat [13]; [38]): 0.1 mg/kg/day
LOAEL (rat [13]; [41]): 1 mg/kg/day
NEL (rat [13]; [41]): 0.05 mg/kg/day
NOAEL (rat [13]; [41]): 0.1 mg/kg/day
LEL (rat [13]; group: systemic, systemic / pathology microscopic / pituitary gland / adenoma): 0.1 mg/kg/day
LOAEL (rat [13]; group: systemic, systemic / pathology microscopic / pituitary gland / adenoma + systemic / pathology microscopic / adrenal gland / vacuolization): 1 mg/kg/day
NEL (rat [13]; [48]): 0.05 mg/kg/day
NOAEL (rat [13]; [48]): 0.1 mg/kg/day
LEL (mouse [14]; [49]): 3.94 mg/kg/day
LOAEL (mouse [14]; [49]): 3.94 mg/kg/day
NEL (mouse [14]; [49]): 0.403 mg/kg/day
NOAEL (mouse [14]; [49]): 0.403 mg/kg/day
LOAEL (mouse [14]; group: systemic, systemic / pathology microscopic / liver / fatty change): 41.5 mg/kg/day
NOAEL (mouse [14]; group: systemic, systemic / pathology microscopic / liver / fatty change + systemic / clinical chemistry / alkaline phosphatase (alp/alk) / alkaline …): 3.94 mg/kg/day
LEL (mouse [14]; [50]): 0.0816 mg/kg/day
NEL (mouse [14]; [50]): < 0.0816 mg/kg/day
